Results reported in PMC7436000, “The Spectrum of Design Solutions for Improving the Activity-Selectivity Product of Peptide Antibiotics against Multidrug-Resistant Bacteria and Prostate Cancer PC-3 Cells” (Molecules, 2020).
Converted amounts (≈) assume the structure as drawn. Peptide text beside a SMILES is read from it.

Experiments:
S. aureus clin. isolate = type: cell-based, Staphylococcus aureus; conditions: clin. isolate
Description: (§1) The American Type Culture Collection (ATCC, Rockville, MD, USA) strains and Escherichia coli MG1655 were used as standard bacterial strains. Gram-negative ATCC strains consisted of Escherichia coli (ATCC 25922), Pseudomonas aeruginosa (ATCC 27853), Acinetobacter baumannii (ATCC 19606), and Klebsiella pneumoniae (ATCC 13883). The only Gram-positive standard strain chosen for testing was Staphylococcus aureus (ATCC 29213). Clinical isolates with confirmed multidrug-resistance phenotype were obtained from different wards of the University Hospital Center, Split, Croatia. We described their origin, antibiograms, and resistance phenotype previously. In the same paper, we described the procedure for antimicrobial susceptibility testing on planktonic cells, using the microdilution method in 96-well microtiter plates.
(§2) Briefly, cells were grown on agar plates and a single colony was sampled to generate a liquid culture (LC) grown overnight at 37 °C. The culture was sampled, resuspended in fresh medium, and allowed to grow at 37 °C, until reaching the mid-exponential phase. Lysogeny broth (LB) was used in the case of the E. coli MG1655 cells. Mueller Hinton (MH) medium was used for all other bacterial strains. Serial 2-fold dilutions of the peptide (64 μM to 0.0625 μM) were prepared from peptide stock solution in PBS, and added to a final load of 5 × 10^5 CFU/mL in 100 μL total volume of medium per well in a 96-well plate (Brand 781660). Bacterial cultures were incubated with peptides for 18 h to 24 h at 37 °C. The minimum inhibitory concentration (MIC) was defined as the lowest concentration of the peptide, at which no visible bacterial growth was observed. The MIC for each of the tested peptides was determined in at least three individual assays under the same laboratory conditions. […] At the end of the incubation period for MIC or MBC, the determination of the OD600 was analyzed.

A. baum. clin. isolate = type: cell-based, Acinetobacter baumannii
Description: as §1, §2

[1] = tested on: PC-3 prostate cancer cell line; type: cell-based, human; conditions: 24 h
Procedure: (§3) Prostate cancer cells were donated by the University of Split, School of Medicine. Cells were cultured in RMPI-1640 medium, supplemented with 10% FBS, 1% Penicillin-Streptomycin, and 1% L-Glutamine. Human dermal fibroblasts were purchased from Biopredic (France) and cultured in DMEM medium, supplemented with 10% FBS and 1% Penicillin-Streptomycin. All cell lines were maintained in a humidified incubator with 5% CO2 at 37 °C. Cells were detached using the trypsin-EDTA solution and sub-cultured (7000 cells/well) in a 96-well plate overnight. Peptide stock solutions were prepared in PBS, and cancer cells were treated with 2-fold serial dilutions for 24 h at 37 °C, with 5% CO2. The toxicity of 6 selected peptides was assessed by a standard MTT assay. Treated cells were incubated with MTT working solution (0.5 mg/mL Thiazolyl Blue Tetrazolium Bromide) for 4 h at 37 °C with 5% CO2. Precipitated formazan was dissolved in 200 µL DMSO and absorbance was measured at 595 nm with EnSight Multimode Plate Reader (PerkinElmer, Inc.)

K. pneum. clin. isolate = type: cell-based, Klebsiella pneumoniae
Description: as §1, §2

[2] = tested on: Klebsiella pneumoniae (ATCC 13883); type: cell-based; conditions: ATCC 13883
Description: as §1, §2

[3] = tested on: Escherichia coli (ATCC 25922); type: cell-based; conditions: ATCC 25922
Description: as §1, §2

[4] = tested on: Staphylococcus aureus (ATCC 29213); type: cell-based; conditions: for PEa(20) = SI/MIC(aureus): ATCC 29213, 18 h
Description: as §1, §2

Escherichia coli MG1655 = type: cell-based; conditions: MG1655
Description: as §1, §2

[5] = tested on: Acinetobacter baumannii (ATCC 19606); type: cell-based; conditions: ATCC 19606
Description: as §1, §2

[6] = tested on: Pseudomonas aeruginosa (ATCC 27853); type: cell-based; conditions: ATCC 27853
Description: as §1, §2

human erythrocytes = test: Hemolysis of human erythrocytes; type: cell-based; conditions: for HC10: concentration causing 10% hemolysis, 0.2% Triton = 100%; for HC10 / HC20 / HC50: 0.5% RBC in PBS, 1 h, 37 °C, absorbance 450 nm, triplicate; for HC20: concentration causing 20% hemolysis; for HC50: concentration causing 50% hemolysis
Procedure: Fresh blood was obtained from a healthy donor. Blood was stored in a tube containing EDTA at 4 °C and used within 24 h. Before use, 1 mL of blood was centrifuged (400× g, 10 min), and the supernatant was discarded. Moreover, 500 μL cold PBS with EDTA (1 mM) was added, mixed and centrifuged. The supernatant was discarded. Furthermore, 500 μL of cold PBS with EDTA (1 mM) was added, from which a dilution of 1% blood was made. Peptides were prepared in PBS at a 2 × concentration in 100 µL. […] The suspension was incubated at 37 °C for 1 h and centrifuged at 10,000× g for 5 min. […] After centrifugation, the supernatant was added to a 96-well microtiter plate (150–180 μL), and the absorbance was measured at 450 nm, using EnSight Multimode Plate Reader (PerkinElmer, Inc.). Each measurement was done in triplicate. […] We opted to also include the extrapolated HC50 in our results, to permit comparisons with older toxicity results. However, the HC20 measurements were used for ranking the peptides according to their selectivity and overall performance (Figure 1 and Figure 2 and Table 2).

[7] = tested on: human primary dermal fibroblasts; type: cell-based; conditions: 24 h
Procedure: as §3

P. aerug. clin. isolate = type: cell-based, Pseudomonas aeruginosa
Description: as §1, §2

E. coli clin. isolate = type: cell-based, Escherichia coli; conditions: clin. isolate
Description: as §1, §2

CC[C@H](C)[C@H](NC(=O)[C@H](CCCNC(=N)N)NC(=O)[C@H](C)NC(=O)[C@H](Cc1ccc(O)cc1)NC(=O)[C@H](CCCNC(=N)N)NC(=O)[C@H](CCCNC(=N)N)NC(=O)[C@H](Cc1c[nH]c2ccccc12)NC(=O)[C@H](Cc1c[nH]cn1)NC(=O)[C@@H](N)Cc1c[nH]cn1)C(=O)NCC(=O)N[C@@H](Cc1ccccc1)C(=O)N[C@@H](CCCNC(=N)N)C(=O)N[C@@H](C)C(=O)N[C@H](C(=O)N[C@@H](CCCNC(=N)N)C(=O)N[C@H](C(=O)N[C@H](C(=O)N[C@H](C(=O)NCC(=O)N[C@@H](CCCCN)C(N)=O)[C@@H](C)CC)C(C)C)[C@@H](C)O)C(C)C [T2] (H-HHWRRYARIGFRAVRTVIGK-NH2)
MIC (S. aureus clin. isolate) (S. aureus clin. isolate): 4 µM (≈ 9.92 µg/mL)
MIC (A. baum. clin. isolate) (A. baum. clin. isolate): 8 µM (≈ 19.8 µg/mL)
(TI/ IC50C) vs. MP1 [1]: 8.4
IC50 [1]: 10 µM
TI (HC20/IC20C) [1]: 1
TI (IC50F/IC50C) [1]: 3.5
TI/ IC50C [1]: 0.35
MIC (K. pneum. clin. isolate) (K. pneum. clin. isolate): 8 µM (≈ 19.8 µg/mL)
MIC (K. pneum. ATCC 13883) [2]: 4 µM (≈ 9.92 µg/mL)
MIC (E. coli ATCC 25922) [3]: 0.5 to 1 µM
MIC (S. aureus ATCC 29213) [4]: 1 µM (≈ 2.48 µg/mL)
PEa(20) = SI/MIC(aureus) [4]: 3 µM⁻¹
MIC (E. coli MG1655) (Escherichia coli MG1655): >32 µM
MIC (A. baum. ATCC 19606) [5]: 1 µM (≈ 2.48 µg/mL)
MIC (P. aerug. ATCC 27853) [6]: 4 µM (≈ 9.92 µg/mL)
HC10 (human erythrocytes): 1.4 µM
HC20 (human erythrocytes): 3 µM
HC50 (human erythrocytes): 28 µM
IC50 [7]: 35 µM
MIC (P. aerug. clin. isolate) (P. aerug. clin. isolate): 32 µM (≈ 79.3 µg/mL)
MIC (E. coli clin. isolate) (E. coli clin. isolate): 8 µM (≈ 19.8 µg/mL)

CC[C@H](C)[C@H](NC(=O)[C@@H](NC(=O)[C@H](CCCNC(=N)N)NC(=O)CNC(=O)[C@@H](NC(=O)[C@H](CCCCN)NC(=O)[C@H](CCCCN)NC(=O)CNC(=O)[C@@H](NC(=O)[C@H](CCCCN)NC(=O)[C@H](CCCCN)NC(=O)[C@@H](NC(=O)[C@@H](NC(=O)[C@H](CCCCN)NC(=O)[C@H](CCCCN)NC(=O)[C@@H](NC(=O)[C@@H](NC(=O)[C@H](CCC(=O)O)NC(=O)[C@H](CCCNC(=N)N)NC(=O)CNC(=O)[C@@H](NC(=O)CN)[C@@H](C)CC)[C@@H](C)CC)[C@@H](C)CC)[C@@H](C)CC)[C@@H](C)CC)[C@@H](C)CC)[C@@H](C)CC)[C@@H](C)CC)C(N)=O [ZYK1] (H-GIGREIIKKIIKKIGKKIGRII-NH2)
MIC (S. aureus clin. isolate) (S. aureus clin. isolate): 2 µM (≈ 4.95 µg/mL)
MIC (A. baum. clin. isolate) (A. baum. clin. isolate): 2 µM (≈ 4.95 µg/mL)
(TI/ IC50C) vs. MP1 [1]: 107
IC50 [1]: 1.5 µM
TI (HC20/IC20C) [1]: 8.6
TI (IC50F/IC50C) [1]: 6.7
TI/ IC50C [1]: 4.47
MIC (K. pneum. clin. isolate) (K. pneum. clin. isolate): 4 µM (≈ 9.9 µg/mL)
MIC (K. pneum. ATCC 13883) [2]: 2 µM (≈ 4.95 µg/mL)
MIC (E. coli ATCC 25922) [3]: 1 µM (≈ 2.47 µg/mL)
MIC (S. aureus ATCC 29213) [4]: 1 µM (≈ 2.47 µg/mL)
PEa(20) = SI/MIC(aureus) [4]: 8 µM⁻¹
MIC (E. coli MG1655) (Escherichia coli MG1655): 4 µM (≈ 9.9 µg/mL)
MIC (A. baum. ATCC 19606) [5]: 2 µM (≈ 4.95 µg/mL)
MIC (P. aerug. ATCC 27853) [6]: 16 µM (≈ 39.6 µg/mL)
HC10 (human erythrocytes): 3 µM
HC20 (human erythrocytes): 8 µM
HC50 (human erythrocytes): 29 µM
IC50 [7]: 10 µM
MIC (P. aerug. clin. isolate) (P. aerug. clin. isolate): 16 µM (≈ 39.6 µg/mL)
MIC (E. coli clin. isolate) (E. coli clin. isolate): 2 µM (≈ 4.95 µg/mL)

CC[C@H](C)[C@H](NC(=O)CN)C(=O)N[C@@H](CCCCN)C(=O)N[C@@H](CCCCN)C(=O)N[C@@H](C)C(=O)N[C@H](C(=O)NCC(=O)N[C@@H](CCCCN)C(=O)N[C@@H](C)C(=O)N[C@@H](CC(C)C)C(=O)N[C@@H](CCCCN)C(=O)NCC(=O)N[C@@H](CC(C)C)C(=O)N[C@@H](CCCCN)C(=O)NCC(=O)N[C@@H](CC(C)C)C(=O)N[C@@H](CC(C)C)C(=O)N[C@@H](CCCCN)C(=O)N[C@@H](C)C(=O)N[C@@H](CC(C)C)C(=O)NCC(=O)N[C@@H](CCC(=O)O)C(=O)N[C@@H](CO)C(N)=O)C(C)C [A1A] (H-GIKKAVGKALKGLKGLLKALGES-NH2)
MIC (S. aureus clin. isolate) (S. aureus clin. isolate): 4 µM (≈ 9.12 µg/mL)
MIC (A. baum. clin. isolate) (A. baum. clin. isolate): 4 to 8 µM
(TI/ IC50C) vs. MP1 [1]: 5
IC50 [1]: 12 µM
TI (HC20/IC20C) [1]: 27
TI (IC50F/IC50C) [1]: 2.5
TI/ IC50C [1]: 0.21
MIC (K. pneum. clin. isolate) (K. pneum. clin. isolate): 8 µM (≈ 18.2 µg/mL)
MIC (K. pneum. ATCC 13883) [2]: 4 µM (≈ 9.12 µg/mL)
MIC (E. coli ATCC 25922) [3]: 1 µM (≈ 2.28 µg/mL)
MIC (S. aureus ATCC 29213) [4]: 1 µM (≈ 2.28 µg/mL)
PEa(20) = SI/MIC(aureus) [4]: 80 µM⁻¹
MIC (E. coli MG1655) (Escherichia coli MG1655): 2 µM (≈ 4.56 µg/mL)
MIC (A. baum. ATCC 19606) [5]: 2 µM (≈ 4.56 µg/mL)
MIC (P. aerug. ATCC 27853) [6]: 64 µM (≈ 146 µg/mL)
HC10 (human erythrocytes): 25 µM
HC20 (human erythrocytes): 80 µM
HC50 * (extrapolated) (human erythrocytes; extrapolated, all concentrations tested lysed less than 50% of cells): 125 * µM
IC50 [7]: 30 µM
MIC (P. aerug. clin. isolate) (P. aerug. clin. isolate): >64 µM
MIC (E. coli clin. isolate) (E. coli clin. isolate): 32 µM (≈ 72.9 µg/mL)
